From DBAASP come the findings set out here.

Among the test systems are Escherichia coli; Listeria innocua; Micrococcus luteus; Cupriavidus necator H16; Escherichia coli JM109; Bacillus subtilis; Escherichia coli W160-37; Micrococcus luteus MT166; Candida albicans SC5314; Candida krusei IFM 56881; Escherichia coli ML-35p.
Common to all, as to assay: ≥ marks a high value that may be exact or a test limit, other limits are often not marked, values filed in µg/mL are converted to µM
The test system of assay [1] is Candida albicans ATCC 90028.
The test system of assay [2] is Pseudomonas aeruginosa ATCC 9027.
Assay [3] concerns Salmonella enterica subsp. enterica serovar Enteritidis.
Assay [4] has as its system Staphylococcus aureus USA 100.
Assay [5] concerns Staphylococcus aureus USA 300.
The subject of assay [6] is Escherichia coli ATCC 25922.
Assay [7] deals with Escherichia coli ATCC 54127.
Assay [8] concerns Pseudomonas aeruginosa ATCC 27853.
In assay [9] the test system is Pseudomonas aeruginosa CIP A22.
In assay [10] the test system is Staphylococcus aureus ATCC 25923.
Assay [11] has as its system Escherichia coli BL21(DE3).
Assay [12] concerns Pseudomonas putida GPp104.
Assay [13] deals with Pseudomonas putida NCIM 2102.
The test system of assay [14] is Saccharomyces cerevisiae ATCC 8530.
Assay [15] has as its system Staphylococcus aureus ATCC 8530.
The test system of assay [16] is Enterococcus faecalis ATCC 29212.
Assay [17] deals with Staphylococcus aureus ATCC 29213.
In assay [18] the test system is Staphylococcus epidermidis PIA 8400.
Assay [19] relates to Bacillus subtilis VKM B-886.
Assay [20] has as its system Candida parapsilosis ATCC 22019.
The subject of assay [21] is Cryptococcus neoformans var. grubii H99.
Assay [22] relates to Klebsiella pneumoniae CI 287.
In assay [23] the test system is Micrococcus luteus VKM B-1314.
The test system of assay [24] is Pseudomonas aeruginosa PAO1.
The test system of assay [25] is Staphylococcus aureus 209P.

Values after ≈ are worked out from the molar mass of the structure shown. Values joined by “and” are separate entries in the source; they are usually repeats but may differ in a detail not shown here. Equal values may be shown once.

The term MIC denotes the least concentration at which growth counts as inhibited. On to `NC(N)=NCCC[C@H](N)C(=O)N[C@@H](Cc1ccc(O)cc1)C(=O)N[C@@H](Cc1cnc[nH]1)C(=O)O` [RYH], for which the minimum inhibitory concentration (MIC) is at least 100 µM in [1]; 4 µM (≈ 1.9 µg/mL) in the assay on Escherichia coli; 1 µM (≈ 0.475 µg/mL) with Listeria innocua; 4 µM (≈ 1.9 µg/mL) in the assay with Micrococcus luteus; above 100 µM in [2]; 1 µM (≈ 0.475 µg/mL) in [3]. Moreover, the MIC in assay [4] and in assay [5] was at least 100 µM in each case.

`CC[C@H](C)[C@H](NC(=O)CNC(=O)[C@H](CCCCN)NC(=O)[C@H](CC(C)C)NC(=O)[C@H](CCSC)NC(=O)[C@H](CC(N)=O)NC(=O)[C@H](CCCCN)NC(=O)[C@H](Cc1c[nH]c2ccccc12)NC(=O)[C@H](CC(C)C)NC(=O)[C@H](C)N)C(=O)NCC(=O)N[C@@H](CCCCN)C(=O)N[C@@H](CC(C)C)C(=O)N[C@@H](C)C(=O)NCC(=O)N[C@@H](CCC(N)=O)C(=O)N[C@@H](C)C(=O)N[C@@H](C)C(=O)N[C@@H](CC(C)C)C(=O)NCC(=O)N[C@@H](C)C(=O)N[C@H](C(=O)N[C@@H](CCCCN)C(=O)N[C@H](C(=O)N[C@@H](CC(C)C)C(=O)N[C@H](C(=O)NCC(=O)N[C@@H](C)C(=O)O)C(C)C)[C@@H](C)O)C(C)C` [ALWKNMLKGIGKLAGQAALGAVKTLVGA]: the MIC was found to be 2.6 µM (≈ 7.23 µg/mL) in assay [6]; 2.3 µM (≈ 6.39 µg/mL) in [7]; 5 µM (≈ 13.9 µg/mL) in assay [8]; 2.3 µM (≈ 6.39 µg/mL) in assay [9]; 1.3 µM (≈ 3.61 µg/mL) in assay [10].

As for `CC[C@H](C)[C@H](NC(=O)[C@H](Cc1ccc(O)cc1)NC(=O)[C@@H](NC(=O)[C@@H]1CCCN1C(=O)[C@H](CCCN=C(N)N)NC(=O)[C@H](CCCN=C(N)N)NC(=O)[C@@H](NC(=O)[C@@H](N)C(C)C)C(C)C)C(C)C)C(=O)N1CCC[C@H]1C(=O)N[C@@H](CCC(N)=O)C(=O)N1CCC[C@H]1C(=O)N[C@@H](CCCN=C(N)N)C(=O)N1CCC[C@H]1C(=O)N1CCC[C@H]1C(=O)N[C@@H](Cc1cnc[nH]1)C(=O)N1CCC[C@H]1C(=O)N[C@@H](CCCN=C(N)N)C(=O)N[C@@H](CC(C)C)C(=O)O` [VVRRPVYIPQPRPPHPRL], the MIC was at least 50 µM with Cupriavidus necator H16, 1.25 µM (≈ 2.72 µg/mL) in assay [11], 12.5 µM (≈ 27.2 µg/mL) against Escherichia coli JM109 and 25 µM (≈ 54.4 µg/mL) in [12].

On to `CC[C@H](C)[C@@H]1NC(=O)[C@@H]2CCCN2C(=O)[C@H](CC(C)C)NC(=O)[C@@H]2CCCN2C(=O)[C@H]([C@@H](C)CC)NC(=O)[C@H](C)NC(=O)[C@H](Cc2ccc(O)cc2)NC(=O)[C@@H](NC(=O)[C@@H](NC(=O)[C@@H](N)CCCN=C(N)N)C(C)C)CSSC[C@@H](C(=O)N[C@@H](Cc2ccc(O)cc2)C(N)=O)NC1=O` [RVCYAIPLPICY], for which the MIC with Bacillus subtilis was 21.3 µM (≈ 29.9 µg/mL); with Escherichia coli W160-37, 28.4 µM (≈ 39.9 µg/mL); with Micrococcus luteus MT166, 21.3 µM (≈ 29.9 µg/mL); in assay [13], 28.4 µM (≈ 39.9 µg/mL); in [14] it was at least 56.7 µM; in assay [15] it was 21.3 µM (≈ 29.9 µg/mL).

In the case of `CC(C)C[C@H](NC(=O)[C@H](CCCN=C(N)N)NC(=O)[C@@H](N)Cc1ccc(O)cc1)C(=O)N[C@@H](CCCN=C(N)N)C(=O)N[C@H](C(=O)N[C@@H](CCCCN)C(=O)N[C@@H](Cc1c[nH]c2ccccc12)C(=O)N[C@@H](CCCCN)C(=O)N[C@@H](Cc1c[nH]c2ccccc12)C(N)=O)C(C)C` [YRLRVKWKW], the MIC is 37.5 µM and 74.9 µM in [16]; 9.74 µM (≈ 13 µg/mL) in [6]; 18.7 µM and 9.74 µM in assay [8]; 9.74 µM (≈ 13 µg/mL) in [17]; 4.5 µM and 9.74 µM in assay [18].

For `CC[C@H](C)[C@@H]1NC(=O)CNC(=O)[C@H](CCCN=C(N)N)NC(=O)[C@H](Cc2ccc(O)cc2)NC(=O)[C@@H]2CSSC[C@H](NC1=O)C(=O)N[C@@H](Cc1ccc(O)cc1)C(=O)N[C@@H](CCCN=C(N)N)C(=O)N[C@@H](CCCCN)C(=O)N[C@H](C(=O)N[C@@H](CCCN=C(N)N)C(=O)O)CSSC[C@H](NC(=O)[C@H](Cc1c[nH]c3ccccc13)NC(=O)[C@@H](N)CCCCN)C(=O)N[C@@H](Cc1ccccc1)C(=O)N[C@@H](CCCN=C(N)N)C(=O)N[C@@H](C(C)C)C(=O)N2` [KWCFRVCYRGICYRKCR], the MIC came out at 1 µM (≈ 2.24 µg/mL) in assay [19]; 14.3 µM (≈ 31.9 µg/mL) against Candida albicans SC5314; 28.6 µM (≈ 63.9 µg/mL) with Candida krusei IFM 56881; 7.14 µM (≈ 16 µg/mL) in assay [20]; 1.79 µM (≈ 4 µg/mL) in assay [21]; 0.062 µM (≈ 0.139 µg/mL) in the assay with Escherichia coli ML-35p. The MIC in assay [22] turned out to be 0.5 µM (≈ 1.12 µg/mL); in assay [23] it was 2 µM (≈ 4.47 µg/mL); in assay [24], 0.5 µM (≈ 1.12 µg/mL); in [25] it was 0.5 µM (≈ 1.12 µg/mL); in assay [17], 16 µM (≈ 35.8 µg/mL).
